# Laboratory results reported in patent US20220088146A1, “Melanocortin Receptor-Specific Peptide Formulations and Methods for Gastrointestinal Tract-Specific Delivery” (Palatin Technologies, Inc., priority 2018, published 2022).
# Numbered stars: 1 amine (or outer) side, 2 acyl side, 3 side chain; on linkers, the order of the positions; unused ones are H or OH. Bridge positions count the residues as written; N and C are the ends. Square brackets hold non-standard residues; d marks the D form. Peptide text beside a SMILES is read from it. dPhe(3-Cl) = N[C@H](Cc1cccc(Cl)c1)C(=O)O; dPhe(4-Me) = Cc1ccc(C[C@@H](N)C(=O)O)cc1; dPhe(2-Cl) = N[C@H](Cc1ccccc1Cl)C(=O)O; dPhe(4-F) = N[C@H](Cc1ccc(F)cc1)C(=O)O; Suc = O=C(CCC(=O)[*:2])[*:1]; Nle = CCCC[C@H](N)C(=O)O; Orn = NCCC[C@H](N)C(=O)O; Dab = NCC[C@H](N)C(=O)O
# Biological target: hMC1r (Homo sapiens, UniProt Q01726)
# Test: Assay for agonist activity: cAMP accumulation in HBL melanoma cells
# Type: cell-based
# Parameters: endogenous in cells; host or cells: HBL human melanoma cells
# Settings: HBL, compared to NDP-α-MSH as 100%, read-out: MC-1 Emax (average; cAMP HBL)
# Description: 8.2 Assay for Agonist Activity.
# Confluent HBL cells that express hMC1r or HEK-293 cells that express recombinant hMC4r were detached from culture plates by incubation in enzyme-free cell dissociation buffer. Dispersed cells were suspended in Earle's Balanced Salt Solution containing 10 mM HEPES (pH 7.5), 1 mM MgCl2, 1 mM glutamine, 0.5% albumin and 0.3 mM 3-isobutyl-1-methyl-xanthine (IBMX), a phosphodiesterase inhibitor. The cells were plated in 96-well plates at a density of 0.4×10^5 cells per well for HBL cells and 0.5×10^5 cells per well for HEK-293 cells and pre-incubated for 10 minutes. Cells were exposed for 15 minutes at 37° C. to peptides of the present invention dissolved in DMSO (final DMSO concentration of 1%) at a concentration range of 0.05-5000 nM in a total assay volume of 200 μL. […] Data analysis was performed by nonlinear regression analysis with Graph-Pad Prism® software.
# All results are expressed in nM except for Emax values, which are percentage values. Peptides with the captioned primary sequence were synthesized and purified as described in Section 7 above, with the resulting peptide having the structure depicted.
# Sequence of hMC1r (Q01726 whole entry): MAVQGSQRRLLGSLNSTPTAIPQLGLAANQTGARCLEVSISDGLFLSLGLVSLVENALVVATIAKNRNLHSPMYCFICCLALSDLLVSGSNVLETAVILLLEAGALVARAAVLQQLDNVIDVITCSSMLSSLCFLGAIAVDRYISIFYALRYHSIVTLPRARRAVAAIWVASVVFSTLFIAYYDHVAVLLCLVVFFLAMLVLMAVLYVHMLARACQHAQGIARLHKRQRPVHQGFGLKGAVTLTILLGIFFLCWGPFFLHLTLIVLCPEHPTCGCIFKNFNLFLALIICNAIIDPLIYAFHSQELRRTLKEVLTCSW
row,Structure (SMILES),Emax
1,"CCCC(=O)N[C@H]1CCC(=O)NCC[C@@H](C(=O)N[C@@H](Cc2c[nH]c3ccccc23)C(N)=O)NC(=O)[C@H](CCCNC(=N)N)NC(=O)[C@@H](Cc2ccccc2)NC(=O)[C@H](Cc2c[nH]cn2)NC1=O [Example 9.15, CH3—(CH2)2—C(═O)-cyclo(Glu-His-D-Phe-Arg-Dab)-Trp-NH2]",91%
2,"N=C(N)NCCC[C@@H]1NC(=O)[C@@H](Cc2ccccc2)NC(=O)[C@H](Cc2c[nH]cn2)NC(=O)[C@@H](NC(=O)C2CCCCC2)CCC(=O)NCC[C@@H](C(=O)N[C@@H](Cc2c[nH]c3ccccc23)C(N)=O)NC1=O [Example 9.20, cyclo-hexanoyl-cyclo(Glu-His-D-Phe-Arg-Dab)-Trp-NH2]",79%
3,"CCCC[C@H](NC(C)=O)C(=O)N[C@H]1CCC(=O)NCC[C@@H](C(=O)N[C@@H](CCCCN)C(N)=O)NC(=O)[C@H](CCCNC(=N)N)NC(=O)[C@@H](Cc2ccccc2)NC(=O)[C@H](Cc2c[nH]cn2)NC1=O [Example 9.39, Ac-Nle-cyclo(Glu-His-D-Phe-Arg-Dab)-Lys-NH2]",91%
4,"CCCC[C@H](NC(C)=O)C(=O)N[C@H]1CCC(=O)NCC[C@@H](C(N)=O)NC(=O)[C@H](CCCNC(=N)N)NC(=O)[C@@H](Cc2ccc(C)cc2)NC(=O)[C@H](CCCN)NC1=O [Example 9.63, Ac-Nle-cyclo(Glu-Orn-D-Phe(4-Me)-Arg-Dab)-NH2] (Ac-[Nle]E[Orn][dPhe(4-Me)]R[Dab]-NH2; lactam 2-6)",96%
5,"CCCC[C@H](NC(C)=O)C(=O)N[C@H]1CCC(=O)NCC[C@@H](C(N)=O)NC(=O)[C@H](CCCNC(=N)N)NC(=O)[C@@H](Cc2cccc(Cl)c2)NC(=O)[C@H](CCCN)NC1=O [Example 9.58, Ac-Nle-cyclo(Glu-Orn-D-Phe(3-Cl)-Arg-Dab)-NH2] (Ac-[Nle]E[Orn][dPhe(3-Cl)]R[Dab]-NH2; lactam 2-6)",86%
6,"N=C(N)NCCC[C@@H]1NC(=O)[C@@H](Cc2ccccc2)NC(=O)[C@H](Cc2c[nH]cn2)NC(=O)CCC(=O)NCC[C@@H](C(=O)N[C@@H](Cc2c[nH]c3ccccc23)C(N)=O)NC1=O [Example 9.14, cyclo(Suc-His-Phe-Arg-Dab)-Trp-NH2] (H[dF]R[Dab]W-NH2; linker N-4 via Suc)",80%
7,"CCCC[C@H](NC(C)=O)C(=O)N[C@H]1CCC(=O)NCC[C@@H](C(=O)N[C@@H](Cc2c[nH]c3ccccc23)C(N)=O)NC(=O)[C@H](C)NC(=O)[C@@H](Cc2ccccc2)NC(=O)[C@H](Cc2c[nH]cn2)NC1=O [Example 9.48, Ac-Nle-cyclo(Glu-His-D-Phe-Ala-Dab)-Trp-NH2]",72%
8,"CCCC[C@H](NC(C)=O)C(=O)N[C@H]1CCC(=O)NCC[C@@H](C(N)=O)NC(=O)[C@H](C)NC(=O)[C@@H](Cc2ccccc2)NC(=O)[C@H](Cc2c[nH]cn2)NC1=O [Example 9.33, Ac-Nle-cyclo(Glu-His-D-Phe-Ala-Dab)-NH2]",73%
9,"CCCC[C@H](NC(C)=O)C(=O)N[C@H]1CCC(=O)NCC[C@@H](C(N)=O)NC(=O)[C@H](CCCNC(=N)N)NC(=O)[C@@H](Cc2ccc(F)cc2)NC(=O)[C@H](CCCN)NC1=O [Example 9.61, Ac-Nle-cyclo(Glu-Orn-D-Phe(4-F)-Arg-Dab)-NH2] (Ac-[Nle]E[Orn][dPhe(4-F)]R[Dab]-NH2; lactam 2-6)",102%
10,"CCCC[C@H](NC(C)=O)C(=O)N[C@H]1CCC(=O)NCC[C@@H](C(N)=O)NC(=O)[C@H](CCCNC(=N)N)NC(=O)[C@@H](Cc2ccccc2Cl)NC(=O)[C@H](CCCN)NC1=O [Example 9.57, Ac-Nle-cyclo(Glu-Orn-D-Phe(2-Cl)-Arg-Dab)-NH2] (Ac-[Nle]E[Orn][dPhe(2-Cl)]R[Dab]-NH2; lactam 2-6)",88%
11,"N=C(N)NCCC[C@@H]1NC(=O)[C@@H](Cc2ccccc2)NC(=O)[C@H](Cc2c[nH]cn2)NC(=O)[C@@H](NC(=O)CCc2ccccc2)CCC(=O)NCC[C@@H](C(=O)N[C@@H](Cc2c[nH]c3ccccc23)C(N)=O)NC1=O [Example 9.24, phenyl propanoyl-cyclo(Glu-His-D-Phe-Arg-Dab)-Trp-NH2]",83%
12,"CCCC[C@H](NC(C)=O)C(=O)N[C@H]1CCC(=O)NCC[C@@H](C(N)=O)NC(=O)[C@H](CCCNC(=N)N)NC(=O)[C@@H](Cc2ccccc2)NC(=O)[C@@H]2CCCN2C1=O [Example 9.65, Ac-Nle-cyclo(Glu-Pro-D-Phe-Arg-Dab)-NH2]",102%
13,"CCCC[C@H](NC(C)=O)C(=O)N[C@H]1CCC(=O)NCC[C@@H](C(=O)N[C@@H](C)C(N)=O)NC(=O)[C@H](CCCNC(=N)N)NC(=O)[C@@H](Cc2ccccc2)NC(=O)[C@H](Cc2c[nH]cn2)NC1=O [Example 9.25, Ac-Nle-cyclo(Glu-His-D-Phe-Arg-Dab)-Ala-NH2] (Ac-[Nle]EH[dF]R[Dab]A-NH2; lactam 2-6)",97%
14,"CC(=O)N[C@@H](Cc1ccccc1)C(=O)N[C@H]1CCC(=O)NCC[C@@H](C(=O)N[C@@H](Cc2c[nH]c3ccccc23)C(N)=O)NC(=O)[C@H](CCCNC(=N)N)NC(=O)[C@@H](Cc2ccccc2)NC(=O)[C@H](Cc2c[nH]cn2)NC1=O [Example 9.13, Ac-Phe-cyclo(Glu-His-D-Phe-Arg-Dab)-Trp-NH2]",75%
15,"CCCC[C@H](NC(C)=O)C(=O)N[C@H]1CSSC[C@@H](C(=O)N[C@@H](Cc2c[nH]c3ccccc23)C(N)=O)NC(=O)[C@H](CCCNC(=N)N)NC(=O)[C@@H](Cc2ccccc2)NC(=O)[C@H](Cc2c[nH]cn2)NC1=O [Example 9.5, Ac-Nle-cyclo(Cys-His-D-Phe-Arg-Cys)-Trp-NH2]",87%
16,"CCCC[C@H](NC(C)=O)C(=O)N[C@H]1CCC(=O)NCC[C@@H](C(N)=O)NC(=O)[C@H](CCCNC(=N)N)NC(=O)[C@@H](Cc2ccc(OC)cc2)NC(=O)[C@H](CCCN)NC1=O [Example 9.64, Ac-Nle-cyclo(Glu-Orn-D-Phe(4-OMe)-Arg-Dab)-NH2] (Ac-[Nle]E[Orn][dY](Me)R[Dab]-NH2; lactam 2-6)",99%

# The next lines start with the values.
row,Emax,Structure (SMILES)
1,89%,"CCCCC(=O)N[C@H]1CCC(=O)NCC[C@@H](C(=O)N[C@@H](Cc2c[nH]c3ccccc23)C(N)=O)NC(=O)[C@H](CCCNC(=N)N)NC(=O)[C@@H](Cc2ccccc2)NC(=O)[C@H](Cc2c[nH]cn2)NC1=O [Example 9.16, CH3—(CH2)3—C(═O)-cyclo(Glu-His-D-Phe-Arg-Dab)-Trp-NH2]"
2,108%,"CCCC[C@H](NC(C)=O)C(=O)N[C@H]1CCC(=O)NCC[C@@H](C(=O)N[C@@H](Cc2c[nH]c3ccccc23)C(N)=O)NC(=O)[C@H](CCCNC(=N)N)NC(=O)[C@@H](Cc2ccccc2)NC(=O)[C@H](CCN)NC1=O [Example 9.41, Ac-Nle-cyclo(Glu-Dab-D-Phe-Arg-Dab)-Trp-NH2]"
3,109%,"CCCC[C@H](NC(C)=O)C(=O)N[C@H]1CCC(=O)NCC[C@@H](C(=O)N[C@@H](Cc2c[nH]c3ccccc23)C(N)=O)NC(=O)[C@H](CCCNC(=N)N)NC(=O)[C@@H](Cc2ccccc2)NC(=O)[C@H](CCCN)NC1=O [Example 9.42, Ac-Nle-cyclo(Glu-Orn-D-Phe-Arg-Dab)-Trp-NH2]"
4,100%,"CCCC[C@H](NC(C)=O)C(=O)N[C@H]1CCC(=O)NCC[C@@H](C(=O)N[C@@H](Cc2c[nH]c3ccccc23)C(N)=O)NC(=O)[C@H](CCCNC(=N)N)NC(=O)[C@@H](Cc2ccccc2)NC(=O)[C@H](CCCNC(=N)N)NC1=O [Example 9.37, Ac-Nle-cyclo(Glu-Arg-D-Phe-Arg-Dab)-Trp-NH2]"
5,83%,"CCCC[C@H](NC(C)=O)C(=O)N[C@H]1CCC(=O)NCC[C@@H](C(=O)N[C@@H](Cc2ccc3ccccc3c2)C(N)=O)NC(=O)[C@H](CCCNC(=N)N)NC(=O)[C@@H](Cc2ccccc2)NC(=O)[C@H](Cc2c[nH]cn2)NC1=O [Example 9.10, Ac-Nle-cyclo(Glu-His-D-Phe-Arg-Dab)-Nal 2-NH2]"
6,72%,"CCCC[C@H](NC(C)=O)C(=O)N[C@H]1CCC(=O)NCC[C@@H](C(=O)N[C@@H](Cc2cccc3ccccc23)C(N)=O)NC(=O)[C@H](CCCNC(=N)N)NC(=O)[C@@H](Cc2ccccc2)NC(=O)[C@H](Cc2c[nH]cn2)NC1=O [Example 9.30, Ac-Nle-cyclo(Glu-His-D-Phe-Arg-Dab)-Nal 1-NH2]"
7,95%,"CCCC[C@H](NC(C)=O)C(=O)N[C@H]1CCC(=O)NCC[C@@H](C(=O)N[C@@H](Cc2c[nH]c3ccccc23)C(N)=O)NC(=O)[C@H](CCCNC(=N)N)NC(=O)[C@@H](Cc2ccccc2)NC(=O)[C@H](Cc2c[nH]cn2)NC1=O [Example 9.2, Ac-Nle-cyclo(Glu-His-D-Phe-Arg-Dab)-Trp-NH2]"
8,86%,"CCCC[C@H](NC(C)=O)C(=O)N[C@H]1CCC(=O)NCC[C@@H](C(=O)N[C@@H](Cc2c[nH]c3ccccc23)C(N)=O)NC(=O)[C@H](CCCNC(=N)N)NC(=O)[C@@H](Cc2ccccc2)NC(=O)[C@H](C)NC1=O [Example 9.36, Ac-Nle-cyclo(Glu-Ala-D-Phe-Arg-Dab)-Trp-NH2]"
9,87%,"CCCCCCC(=O)N[C@H]1CCC(=O)NCC[C@@H](C(=O)N[C@@H](Cc2c[nH]c3ccccc23)C(N)=O)NC(=O)[C@H](CCCNC(=N)N)NC(=O)[C@@H](Cc2ccccc2)NC(=O)[C@H](Cc2c[nH]cn2)NC1=O [Example 9.18, CH3—(CH2)5—C(═O)-cyclo(Glu-His-D-Phe-Arg-Dab)-Trp-NH2]"
